Test system: SEM cells
Assay: cell viability relative to DMSO control; higher = less cytotoxic
Settings: 48 h
Procedure, shortened: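 NOMO1, SEM and P12-Ichikawa leukemia cells spent at least four passages adapting to each medium before use. They were seeded at 500 cells/well (NOMO1, SEM) or 1000 cells/well (P12-Ichikawa) in 5 μl in 1536-well plates and pin-dosed with library compounds in DMSO at 11 threefold steps from 47 μM down to 0.79 nM. After 48 h at 37°C, CellTiter-Glo One luminescence was read. Viability is reported as a percentage of the DMSO wells on each plate, with cell-free wells as background.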

[1] = HPLM + 10% dialyzed FBS, 0.000781 µM
[2] = HPLM + 10% dialyzed FBS, 0.00234 µM
[3] = HPLM + 10% dialyzed FBS, 0.00702 µM
[4] = HPLM + 10% dialyzed FBS, 0.0211 µM
[5] = HPLM + 10% dialyzed FBS, 0.0632 µM
[6] = HPLM + 10% dialyzed FBS, 0.19 µM
[7] = HPLM + 10% dialyzed FBS, 0.569 µM
[8] = HPLM + 10% dialyzed FBS, 1.71 µM
[9] = HPLM + 10% dialyzed FBS, 5.12 µM
[10] = HPLM + 10% dialyzed FBS, 15.4 µM
[11] = HPLM + 10% dialyzed FBS, 46.1 µM
[12] = RPMI 5 mM glucose + 10% FBS, 0.000781 µM
[13] = RPMI 5 mM glucose + 10% FBS, 0.00234 µM
[14] = RPMI 5 mM glucose + 10% FBS, 0.00702 µM
[15] = RPMI 5 mM glucose + 10% FBS, 0.0211 µM
[16] = RPMI 5 mM glucose + 10% FBS, 0.0632 µM
[17] = RPMI 5 mM glucose + 10% FBS, 0.19 µM
[18] = RPMI 5 mM glucose + 10% FBS, 0.569 µM
[19] = RPMI 5 mM glucose + 10% FBS, 1.71 µM
[20] = RPMI 5 mM glucose + 10% FBS, 5.12 µM
[21] = RPMI 5 mM glucose + 10% FBS, 15.4 µM
[22] = RPMI 5 mM glucose + 10% FBS, 46.1 µM
[23] = RPMI 5 mM glucose + 10% dialyzed FBS, 0.000781 µM
[24] = RPMI 5 mM glucose + 10% dialyzed FBS, 0.00234 µM
[25] = RPMI 5 mM glucose + 10% dialyzed FBS, 0.00702 µM
[26] = RPMI 5 mM glucose + 10% dialyzed FBS, 0.0211 µM
[27] = RPMI 5 mM glucose + 10% dialyzed FBS, 0.0632 µM
[28] = RPMI 5 mM glucose + 10% dialyzed FBS, 0.19 µM
[29] = RPMI 5 mM glucose + 10% dialyzed FBS, 0.569 µM
[30] = RPMI 5 mM glucose + 10% dialyzed FBS, 1.71 µM
[31] = RPMI 5 mM glucose + 10% dialyzed FBS, 5.12 µM
[32] = RPMI 5 mM glucose + 10% dialyzed FBS, 15.4 µM
[33] = RPMI 5 mM glucose + 10% dialyzed FBS, 46.1 µM

| Structure (SMILES) | cell viability [1] | cell viability [2] | cell viability [3] | cell viability [4] | cell viability [5] | cell viability [6] | cell viability [7] | cell viability [8] | cell viability [9] | cell viability [10] | cell viability [11] | cell viability [12] | cell viability [13] | cell viability [14] | cell viability [15] | cell viability [16] | cell viability [17] | cell viability [18] | cell viability [19] | cell viability [20] | cell viability [21] | cell viability [22] | cell viability [23] | cell viability [24] | cell viability [25] | cell viability [26] | cell viability [27] | cell viability [28] | cell viability [29] | cell viability [30] | cell viability [31] | cell viability [32] | cell viability [33] |
| --- | --- | --- | --- | --- | --- | --- | --- | --- | --- | --- | --- | --- | --- | --- | --- | --- | --- | --- | --- | --- | --- | --- | --- | --- | --- | --- | --- | --- | --- | --- | --- | --- | --- |
| COc1ccc2c(OCc3nnc4ccc(-c5ccccc5)nn34)ccnc2c1 | 106% | 101% | 101% | 107% | 120% | 92.9% | 107% | 102% | 97.4% | 75.9% | 15.6% | 68.7% | 63.1% | 71.5% | 82.1% | 84% | 78.6% | 105% | 78.2% | 60.8% | 25.6% | 1.49% | 94% | 96.8% | 90.5% | 111% | 115% | 102% | 95.3% | 91.1% | 81% | 63.1% | 3.65% |
| CN1/C=C(\N=C(NC2=CC=C(C=C2)C(=O)N3CCOCC3)/C1=O)/C4=C(C)C(=CC=C4)NC(=O)C5=CC=C(C=C5)C(C)(C)C | 111% | 97.2% | 105% | 48.6% | 106% | 116% | 97.5% | 110% | 106% | 89.5% | 92.2% | 110% | 102% | 106% | 46.8% | 101% | 86.6% | 110% | 92.8% | 104% | 83.3% | 66% | 106% | 108% | 105% | 50.7% | 120% | 107% | 100% | 111% | 92.2% | 98.5% | 68.6% |
| FC(F)(F)C1=CC=C2C(SCCCCCO\C3=C\O\C(CN4CCOCC4)=C/C3=O)=CC=NC2=C1 | 92.4% | 106% | 107% | 106% | 108% | 115% | 111% | 119% | 112% | 106% | 96.2% | 66.6% | 74.4% | 69% | 67.2% | 63.7% | 72.9% | 77.8% | 65.4% | 66.1% | 69.4% | 61.9% | 112% | 113% | 104% | 110% | 102% | 112% | 115% | 110% | 99% | 102% | 85.7% |
| CCOc1cc(/C=C2/C(=O)N(c3ccccc3)N=C2C)cc(Cl)c1OCC(=O)OC | 69.2% | 85.9% | 84% | 82.7% | 81% | 90% | 85.9% | 89.5% | 75.7% | 83.6% | 48.4% | 86.2% | 95.7% | 85.2% | 91.1% | 82% | 107% | 95.6% | 95.8% | 90.9% | 71.9% | 58.6% | 80% | 74.3% | 95% | 90% | 64.4% | 90.6% | 81.5% | 86.3% | 85.8% | 65.9% | 59% |
| C[C@@H](NCc1cc2ccccc2[nH]1)c1cccc2ccccc12 | 80% | 80.5% | 86.2% | 83.3% | 77.7% | 107% | 89.7% | 95.9% | 89.2% | 89.7% | 41.9% | 84.1% | 86.6% | 87.2% | 90.3% | 74.5% | 92.2% | 97.5% | 84.4% | 92.9% | 85.9% | 39.5% | 90% | 84.1% | 86% | 82.9% | 71.7% | 101% | 93.3% | 93% | 93.1% | 85.6% | 57.9% |
| Cc1cccc(N(C)C(=S)Oc2ccc3ccccc3c2)c1 | 79.4% | 91.8% | 83.8% | 98.8% | 90.7% | 104% | 96.8% | 84.7% | 106% | 96.5% | 87.2% | 79.7% | 102% | 96.1% | 90.8% | 108% | 86.7% | 110% | 109% | 107% | 99.4% | 85% | 95.6% | 114% | 102% | 108% | 108% | 96.7% | 129% | 117% | 115% | 101% | 89% |
| CC1=CC=C2\N=C/3N(CC[C@@]3(O)C(=O)C2=C1)C4=CC=CC=C4 | 89.5% | 88.6% | 97.7% | 87.3% | 94.5% | 93% | 96.6% | 95% | 70.5% | 85.8% | 93% | 119% | 120% | 98.3% | 120% | 108% | 121% | 97% | 94.9% | 92.4% | 117% | 107% | 86.8% | 83.2% | 85.6% | 95.7% | 92.6% | 76.6% | 101% | 78.3% | 70.8% | 87.2% | 94.5% |

Reference: the supplement of paper PMC11451515
